Experimental data from PubChem BioAssay AID1963861 (Molecular Pharmacology Branch, DTP, NCI, 2024).

Test system: 885724-159-R-J1-PDC KRAS PDC multicell spheroid viability
Assay: Anticancer human tumor 885724-159-R-J1-PDC patient-derived pancreatic adenocarcinoma cell line growth inhibition [KRAS2]
Conditions: for IC50: curve of first compound; for viability, T/C: stronger effect = lower value
Excerpt: Multicellular complex tumor spheroid response to RAS pathway inhibitors in combination with a targeted agents in patient-derived cell lines with oncogenic KRAS variants from multiple cancer types
A high-throughput screen of multi-cell type tumor spheroids was designed to identify active combinations of targeted small molecules and KRAS pathway inhibitors. Complex spheroids include a stromal component modeled by human endothelial cells (HUVEC) and fibroblasts modeled by human mesenchymal stem cells (MSCs). The concentration ranges selected for each drug and investigational agent were based upon clinically achievable concentrations if the clinical Cmax of the agent was known.
Compounds. The drugs and investigational agents: BI-3406 (NSC825286), BAY-293 (NSC824723), batoprotafib (TNO155; NSC825523), sotorasib (AMG 510; NSC818433), MRTX1257 (NSC819558), elimusertib (BAY 1895344; NSC800525), molibresib (GSK525762; NSC774829), temuterkib (LY3214996; NSC803410), venetoclax (NSC766270), alisertib (NSC759677), olaparib (NSC753686), talazoparib (NSC767125), erdafitinib (NSC781556), ipatasertib (NSC767898), cabozantinib (NSC761068), nintedanib (NSC756659), abemaciclib (NSC768073), docetaxel (NSC628503), trametinib (NSC758246), and sapanisertib (NSC764658) were obtained from the National Cancer Institute (NCI) Developmental Therapeutics Program Chemical Repository. The FDA-approved anticancer drug set is available from the Developmental Therapeutics Program. […] The stock solutions were prepared in dimethyl sulfoxide (DMSO, Sigma-Aldrich, St. Louis, MO, cat. D2650) at 800-fold the tested concentration and stored at -70 degrees C prior to their use. All drugs and investigational agents were tested over a range starting from a high concentration at or near the clinical Cmax and decreasing in half-log increments. If the clinical Cmax for an agent had not been determined, the highest concentration tested was 10 microM.
Cell Culture. All cells were maintained in an incubator at 37 degrees C and 5% CO2 with 95% humidity. The PDC lines were cultured according to standard operating procedures established by the NCI PDMR (https://pdmr.cancer.gov/sops/default.htm). Briefly, all PDCs were thawed and cultured in Matrigel-coated flasks prepared with a working solution of 1X Ham's F-12 nutrient mix, without supplementation (Invitrogen, Waltham, MA, cat. 11765054), 100 U/mL penicillin-streptomycin (Invitrogen, cat. 15140122), and 2.5% Matrigel (Corning Inc., Corning, NY, cat. 354248) for the first three passages. All PDCs were cultured in complete DMEM/F-12 media containing advanced DMEM/F-12 (Invitrogen, cat. 12634028), 4.9% defined fetal bovine serum, heat inactivated (HyClone Laboratories Inc., Logan, UT, cat. SH30070.03HI), 389 ng/mL hydrocortisone (Sigma-Aldrich, cat. H4001), 9.7 ng/mL human EGF recombinant protein (Invitrogen, cat. PHG0313), 23.4 microg/mL adenine (Sigma-Aldrich, cat. A2786), 97.3 U/mL penicillin-streptomycin (Invitrogen, cat. 15140122), 1.9 mM L-glutamine (Invitrogen, cat. 25030081), and 9.7 microM Y-27632 dihydrochloride (Tocris Bioscience, Bristol, United Kingdom, cat. 1254). The PDCs were cultured in complete DMEM/F12 media without 9.7 microM Y-27632 dihydrochloride for at least two passages prior to the screen. The established cell line HOP-62 was cultured in RPMI 1640 medium, HEPES (Invitrogen, cat. 22400105) with 10% defined fetal bovine serum (HyClone Laboratories Inc., cat. SH30070.03) and 2 mM L-glutamine (Invitrogen, cat. 25030081). The pooled donor HUVEC were cultured in endothelial cell growth medium 2 (PromoCell, Heidelberg, Germany, cat. C-22011) and the hMSC were cultured in mesenchymal stem cell growth medium 2 (PromoCell, cat. C-28009). For all experiments, HUVEC and hMSC were used at passages </=5, while the malignant cell lines were used at passages </=15. […]

[1] = second compound 0.1 µM, first compound 0.0316 µM
[2] = second compound 0.316 µM, first compound 0.0316 µM
[3] = second compound 1 µM, first compound 0.0316 µM
[4] = second compound 3.16 µM, first compound 0.0316 µM
[5] = second compound 10 µM, first compound 0.0316 µM
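Further: spheroids exposed to agents for 7 days before readout.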

CC(=O)Nc1cccc(-n2c(=O)n(C3CC3)c(=O)c3c(Nc4ccc(I)cc4F)n(C)c(=O)c(C)c32)c1 + C=CC(=O)N1CCN(c2nc(=O)n(-c3c(C)ccnc3C(C)C)c3nc(-c4c(O)cccc4F)c(F)cc23)C(C)C1
IC50 (second compound 0.1 µM): 1.74 nM
IC50 (second compound 0.316 µM): 1.57 nM
IC50 (second compound 1 µM): 2 nM
IC50 (second compound 3.16 µM): 1.36 nM
IC50 (second compound 10 µM): 0.33 nM
viability, T/C (second compound 0.1 µM, first compound 0.0001 µM): 102%
viability, T/C (second compound 0.1 µM, first compound 0.000316 µM): 81.2%
viability, T/C (second compound 0.1 µM, first compound 0.001 µM): 55.9%
viability, T/C (second compound 0.1 µM, first compound 0.00316 µM): 42.2%
viability, T/C (second compound 0.1 µM, first compound 0.01 µM): 30%
viability, T/C [1]: 21.3%
viability, T/C (second compound 0.316 µM, first compound 0.0001 µM): 114%
viability, T/C (second compound 0.316 µM, first compound 0.000316 µM): 83%
viability, T/C (second compound 0.316 µM, first compound 0.001 µM): 54.6%
viability, T/C (second compound 0.316 µM, first compound 0.00316 µM): 40.1%
viability, T/C (second compound 0.316 µM, first compound 0.01 µM): 30.6%
viability, T/C [2]: 21.4%
viability, T/C (second compound 1 µM, first compound 0.0001 µM): 92.5%
viability, T/C (second compound 1 µM, first compound 0.000316 µM): 84.3%
viability, T/C (second compound 1 µM, first compound 0.001 µM): 61.2%
viability, T/C (second compound 1 µM, first compound 0.00316 µM): 41.7%
viability, T/C (second compound 1 µM, first compound 0.01 µM): 31.9%
viability, T/C [3]: 23.8%
viability, T/C (second compound 3.16 µM, first compound 0.0001 µM): 84.6%
viability, T/C (second compound 3.16 µM, first compound 0.000316 µM): 81.5%
viability, T/C (second compound 3.16 µM, first compound 0.001 µM): 52.4%
viability, T/C (second compound 3.16 µM, first compound 0.00316 µM): 38.7%
viability, T/C (second compound 3.16 µM, first compound 0.01 µM): 30.1%
viability, T/C [4]: 26.6%
viability, T/C (second compound 10 µM, first compound 0.0001 µM): 61.6%
viability, T/C (second compound 10 µM, first compound 0.000316 µM): 51.3%
viability, T/C (second compound 10 µM, first compound 0.001 µM): 29.3%
viability, T/C (second compound 10 µM, first compound 0.00316 µM): 26.4%
viability, T/C (second compound 10 µM, first compound 0.01 µM): 23.2%
viability, T/C [5]: 18.6%

COc1cc(Nc2ncc3c(n2)-c2ccc(Cl)cc2C(c2c(F)cccc2OC)=NC3)ccc1C(=O)O + C=CC(=O)N1CCN(c2nc(=O)n(-c3c(C)ccnc3C(C)C)c3nc(-c4c(O)cccc4F)c(F)cc23)C(C)C1
IC50 (second compound 0.1 µM): > 10000 nM
IC50 (second compound 0.316 µM): > 10000 nM
IC50 (second compound 1 µM): > 10000 nM
IC50 (second compound 3.16 µM): > 10000 nM
IC50 (second compound 10 µM): > 10000 nM
viability, T/C [1]: 99.7%
viability, T/C (second compound 0.1 µM, first compound 0.1 µM): 100%
viability, T/C (second compound 0.1 µM, first compound 0.316 µM): 95.9%
viability, T/C (second compound 0.1 µM, first compound 1 µM): 92.7%
viability, T/C (second compound 0.1 µM, first compound 3.16 µM): 100%
viability, T/C (second compound 0.1 µM, first compound 10 µM): 107%
viability, T/C [2]: 94.5%
viability, T/C (second compound 0.316 µM, first compound 0.1 µM): 92.1%
viability, T/C (second compound 0.316 µM, first compound 0.316 µM): 92.2%
viability, T/C (second compound 0.316 µM, first compound 1 µM): 96.8%
viability, T/C (second compound 0.316 µM, first compound 3.16 µM): 98.7%
viability, T/C (second compound 0.316 µM, first compound 10 µM): 106%
viability, T/C [3]: 97.8%
viability, T/C (second compound 1 µM, first compound 0.1 µM): 93.5%
viability, T/C (second compound 1 µM, first compound 0.316 µM): 92.2%
viability, T/C (second compound 1 µM, first compound 1 µM): 93.9%
viability, T/C (second compound 1 µM, first compound 3.16 µM): 85.6%
viability, T/C (second compound 1 µM, first compound 10 µM): 99.7%
viability, T/C [4]: 80.9%
viability, T/C (second compound 3.16 µM, first compound 0.1 µM): 85.5%
viability, T/C (second compound 3.16 µM, first compound 0.316 µM): 86.1%
viability, T/C (second compound 3.16 µM, first compound 1 µM): 90.6%
viability, T/C (second compound 3.16 µM, first compound 3.16 µM): 90.9%
viability, T/C (second compound 3.16 µM, first compound 10 µM): 87.4%
viability, T/C [5]: 65.4%
viability, T/C (second compound 10 µM, first compound 0.1 µM): 67.4%
viability, T/C (second compound 10 µM, first compound 0.316 µM): 63.6%
viability, T/C (second compound 10 µM, first compound 1 µM): 58.2%
viability, T/C (second compound 10 µM, first compound 3.16 µM): 56.5%
viability, T/C (second compound 10 µM, first compound 10 µM): 49.8%
